In US4900749A, “Isoprenoidamine compounds useful as antiulcer agents” (Shionogi & Co., Ltd., priority 1985, dated 1990):

Legend:
lesion formation = test: inhibition of 60% ethanol/150 mM hydrochloric acid-induced stomach lesion formation (Experiment 1); assay type: in vivo, Male SD rats; conditions: Rattus norvegicus, 1 h
Description: Male SD rats, weighing 200-300 g, were allowed to fast for 24 hours. One milliliter of 60% ethanol (v/v) in 150 mM hydrochloric acid was given orally 1 hour after oral or intraperitoneal administration of test compound as a suspension in 5% gum arabic, and the animals were killed with an overdose of ether 1 hour later. The stomachs were removed and opened along the greater curvature. The total length (mm) of each lesion was measured for use as the lesion index and inhibition (%) of lesion formation by the test compound was calculated by comparing with that of 5% gum arabic as control.
Geranylgeranylacetone (hereinafter abbreviated as GGA) was employed as a reference compound.

acid secretion = test: inhibition of histamine-stimulated gastric acid secretion in perfused stomach (Experiment 2); assay type: in vivo, Male Jcl SD rats; conditions: intraduodenal, during 90 minutes after administration, histamine dihydrochloride 3 mg/kg/hr
Description: Male Jcl SD rats (body weight; about 300 g) were fast for 24 hours and anesthetized by urethane. Cannula was put into the trachea and into a jugular vein. After midline laparotomy, perfusion cannulae were introduced into the stomach through the pylorus and the esophagus. The animal was perfused with saline (1 ml/min) at 37° C. through the esophagus cannula. Perfusate was collected every 15 minutes through the pylorus cannula and titrated with 0.01N sodium hydroxide to measure acid secretion. Histamine dihydrochloride (3 mg/kg/hr) was infused through the jugular vein cannula and the test compound was administered intraduodenaly 90 minutes later. Acid output in perfusate every 15 minutes was measured in the same manner as described above. The rate of maximum inhibition (%) of acid secretion was calculated during 90 minutes after administration of the test compound compared with the acid output just before administration of the test compound.

[1] = ip, Intraperitoneal administration

| SMILES | inhibition in vivo at 20 mg/kg (lesion formation; Oral administration) | inhibition in vivo at 20 mg/kg (lesion formation; [1]) | other results |
| --- | --- | --- | --- |
| CC(=O)NCC=C(C)CCC=C(C)CCC=C(C)CCC=C(C)C [Compound I-2, N-(3,7,11,15-Tetramethyl-2,6,10,14-hexadecatetraenyl)acetamide] | 46.6% | – | inhibition in vivo at 10 mg/kg (lesion formation; [1]): 71.7% |
| COCC(=O)NCC=C(C)CCC=C(C)CCC=C(C)CCC=C(C)C [Compound I-4] | 29.3% | 88.4% | – |
| CC(C)=CCCC(C)=CCCC(C)=CCCC(C)=CCNC(=O)c1ccccc1 [Compound I-9] | – | 64.2% | – |
| CC(C)=CCCC(C)=CCCC(C)=CCCC(C)=CCNC(=O)c1ccco1 [Compound I-12] | – | – | inhibition in vivo at 10 mg/kg (lesion formation; [1]): 39.4% |
| CC(C)=CCCC(C)=CCCC(C)=CCCC(C)=CCNC(=O)Cc1ccccc1 [Compound I-13] | – | 65.3% | – |
| CC(C)=CCCC(C)=CCCC(C)=CCCC(C)=CCNC(=O)c1ccc([N+](=O)[O-])cc1 [Compound I-18] | – | 75.1% | – |
| CC(C)=CCCC(C)=CCCC(C)=CCCC(C)=CCNC(=O)c1ccccn1 [Compound I-20] | 24.2% | 83.1% | – |
| CC(C)=CCCC(C)=CCCC(C)=CCCC(C)=CCNC(=O)c1cccnc1 [Compound I-21] | 64.5% | 99% | – |
| CC(C)=CCCC(C)=CCCC(C)=CCCC(C)=CCNC(=O)c1ccncc1 [Compound I-22, N-(3,7,11,15-Tetramethyl-2,6,10,14 hexadecatetraenyl)isonicotinamide] | 86.1% | 85.6% | – |
| CC(C)=CCCC(C)=CCCC(C)=CCCC(C)=CCNC(=O)c1cccs1 [Compound I-24] | 11.8% | – | inhibition in vivo at 10 mg/kg (lesion formation; [1]): 62.1% |
| CC(C)=CCCC(C)=CCCC(C)=CCCC(C)=CCNC(=O)c1ccc[nH]1 [Compound I-26] | 9.6% | – | inhibition in vivo at 10 mg/kg (lesion formation; [1]): 59.1% |
| CC(C)=CCCC(C)=CCCC(C)=CCCC(C)=CCNC(=O)c1cnccn1 [Compound I-28] | – | 80.4% | – |
| CC(C)=CCCC(C)=CCCC(C)=CCCC(C)=CCNC(=O)Cc1ccccn1 [Compound I-29] | – | – | inhibition in vivo at 10 mg/kg (lesion formation; [1]): 64.3% |
| CC(C)=CCCC(C)=CCCC(C)=CCCC(C)=CCNC(=O)Cc1cccnc1 [Compound I-30] | 85.1% | 93.6% | Inhibition (%): rate of maximum inhibition of acid secretion (acid secretion; 20 mg/kg): 57.4%; Inhibition (%): rate of maximum inhibition of acid secretion (acid secretion; 50 mg/kg): 99.5% |
| CC(C)=CCCC(C)=CCCC(C)=CCCC(C)=CCNC(=O)Cc1c[nH]cn1 [Compound I-31] | – | 91% | – |
| CC(C)=CCCC(C)=CCCC(C)=CCCC(C)=CCNC(=O)CC#N [Compound I-36] | 56.4% | 72.2% | – |
| CC(C)=CCCC(C)=CCCC(C)=CCCC(C)=CCNC(=O)N1CCOCC1 [Compound I-55, 1-[N-(3,7,11,15-Tetramethyl-2,6,10,14-hexadecatetraenyl)carbamoyl]morpholine] | – | – | Inhibition (%): rate of maximum inhibition of acid secretion (acid secretion; 20 mg/kg): 51.1%; Inhibition (%): rate of maximum inhibition of acid secretion (acid secretion; 50 mg/kg): 77.7%; inhibition in vivo at 10 mg/kg (lesion formation; Oral administration): 22.2%; inhibition in vivo at 10 mg/kg (lesion formation; [1]): 76.7% |
| CC(C)=CCCC(C)=CCCC(C)=CCCC(C)=CCNC(=O)N1CCCCC1 [Compound I-56] | – | 79.4% | – |
| CC(C)=CCCC(C)=CCCC(C)=CCCC(C)=CCNC(N)=O [Compound I-57] | – | 84% | inhibition in vivo at 10 mg/kg (lesion formation; Oral administration): 36.2% |
| CC(C)=CCCC(C)=CCCC(C)=CCCC(C)=CCNC(=O)N1CCN(C)CC1 [Compound I-59] | – | 53.3% | – |
| CC(C)=CCCC(C)=CCCC(C)=CCCC(C)=CCNC(=O)N1CCN(Cc2ccc3c(c2)OCO3)CC1 [Compound I-62] | – | 46.1% | – |
| CC(C)=CCCC(C)=CCCC(C)=CCCC(C)=CCNC(=O)NCCCN1CCOCC1 [Compound I-65] | – | 35.5% | – |
| CC(C)=CCCC(C)=CCCC(C)=CCCC(C)=CCNC(=O)NCc1cccnc1 [Compound I-71] | 44.2% | 68.5% | – |
| CC(C)=CCCC(C)=CCCC(C)=CCCC(C)=CCNC(=O)N(C)C [Compound I-81, N,N-Dimethyl-N'-(3,7,11,15-tetramethyl-2,6,10,14-hexadecatetraenyl)urea] | 23.9% | 78.2% | – |
| CC(C)=CCCC(C)=CCCC(C)=CCCC(C)=CCNC(=O)Nc1ccccc1 [Compound I-82] | – | 62.7% | – |
| CC(=O)CCC=C(C)CCC=C(C)CCC=C(C)CCC=C(C)C [GGA, Geranylgeranylacetone, reference compound] | 37.7% | – | inhibition in vivo at 50 mg/kg (lesion formation; ip, Intraperitoneal administration, 50 mg/kg): 81% |
